Laboratory results from ChEMBL document CHEMBL5465560, “Selectivity Literature for EUbOPEN Chemogenomic Library” (2024).
Each block holds one molecule with its values, some of them ahead of it.

What was measured:
[1] = target: Endothelin-1 receptor (Homo sapiens) (UniProt P25101); test: Selectivity interaction (Eurofins CEREP Diversity Profile (receptors and ion channels)) EUB0000279b EDNRA; conditions: at 10 µM
[2] = target: Mitotic checkpoint serine/threonine-protein kinase BUB1 (Homo sapiens, UniProt O43683); test: Selectivity interaction (KinomeScan (DiscoverX)) EUB0000666a BUB1; conditions: at 10 µM
[3] = target: T1, Tyrosine-protein kinase ITK/TSK (Homo sapiens) (UniProt Q08881); test: Selectivity interaction (KinomeScan (DiscoverX)) EUB0000666a ITK; conditions: at 10 µM
T1 sequence (whole entry): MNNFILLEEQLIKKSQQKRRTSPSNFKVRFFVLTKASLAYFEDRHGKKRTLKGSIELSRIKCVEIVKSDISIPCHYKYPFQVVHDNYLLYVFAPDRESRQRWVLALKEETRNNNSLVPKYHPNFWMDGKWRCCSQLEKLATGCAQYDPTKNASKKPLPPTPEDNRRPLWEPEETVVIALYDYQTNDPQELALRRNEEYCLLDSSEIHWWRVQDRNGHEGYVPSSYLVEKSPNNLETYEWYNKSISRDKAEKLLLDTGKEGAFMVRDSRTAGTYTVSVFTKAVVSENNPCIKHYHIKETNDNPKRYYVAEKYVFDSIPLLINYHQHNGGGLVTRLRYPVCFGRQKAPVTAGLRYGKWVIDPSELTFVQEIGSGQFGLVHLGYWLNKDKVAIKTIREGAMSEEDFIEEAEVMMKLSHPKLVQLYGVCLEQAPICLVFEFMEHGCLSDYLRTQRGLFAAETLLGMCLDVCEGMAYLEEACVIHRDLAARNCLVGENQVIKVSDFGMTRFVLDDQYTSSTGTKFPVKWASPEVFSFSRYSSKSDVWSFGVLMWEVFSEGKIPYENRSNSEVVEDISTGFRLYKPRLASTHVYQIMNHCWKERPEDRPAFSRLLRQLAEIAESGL

[4] = system: Phosphatidylinositol 4,5-bisphosphate 3-kinase catalytic subunit alpha isoform (Homo sapiens), P42336 [E545K]; conditions: at 10 µM
[5] = target: Serine/threonine-protein kinase WNK2 (Homo sapiens) (UniProt Q9Y3S1); test: Selectivity interaction (Upstate Kinase Profiler service (Millipore)) EUB0000056c WNK2; conditions: at 1 µM
[6] = target: Protein kinase C delta type (Homo sapiens) (UniProt Q05655); test: Selectivity interaction (Kinase panel (Invitrogen)) EUB0000639a PRKCD; conditions: at 200 nM
[7] = target: Maternal embryonic leucine zipper kinase (Homo sapiens) (UniProt Q14680); test: Selectivity interaction (KinomeScan (DiscoverX)) EUB0001049a MELK; conditions: at 1 µM
[8] = system: Tyrosine-protein kinase ABL1 (Homo sapiens), P00519 [T315I]; test: Selectivity interaction (KinomeScan (DiscoverX)) EUB0001049a ABL1; conditions: at 1 µM
[9] = target: Serine/threonine-protein kinase N1 (Homo sapiens, UniProt Q16512); test: Selectivity interaction (Ambit KINOMEscan and KiNATiv profiling in Jurkat cells) EUB0000090b PKN1; type: cell-based; conditions: at 1 µM
[10] = target: T2, Serine/threonine-protein kinase 17B (Homo sapiens) (UniProt O94768); test: Selectivity interaction (Ambit KINOMEscan and KiNATiv profiling in Jurkat cells) EUB0000090b STK17B; type: cell-based; conditions: at 1 µM
T2 sequence (whole entry): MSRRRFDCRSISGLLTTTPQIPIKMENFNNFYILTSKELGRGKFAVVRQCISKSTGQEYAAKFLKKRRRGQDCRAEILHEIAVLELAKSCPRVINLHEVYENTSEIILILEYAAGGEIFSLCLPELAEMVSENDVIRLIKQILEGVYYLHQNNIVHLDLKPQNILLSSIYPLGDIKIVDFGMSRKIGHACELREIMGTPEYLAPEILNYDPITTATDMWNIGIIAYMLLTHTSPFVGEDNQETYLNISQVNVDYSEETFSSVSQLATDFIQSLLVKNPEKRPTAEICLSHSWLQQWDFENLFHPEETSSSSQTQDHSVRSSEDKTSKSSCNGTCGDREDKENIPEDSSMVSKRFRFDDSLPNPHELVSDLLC

[11] = target: Tyrosine-protein kinase FRK (Homo sapiens) (UniProt P42685); test: Selectivity interaction (KinomeScan (DiscoverX)) EUB0000655a FRK; conditions: at 10 µM
[12] = target: Vascular endothelial growth factor receptor 2 (Homo sapiens, UniProt P35968)
[13] = target: Proto-oncogene tyrosine-protein kinase Src (Homo sapiens, UniProt P12931); test: Selectivity interaction (KinomeScan (DiscoverX)) EUB0001079a SRC; conditions: at 1 µM
[14] = target: Mitogen-activated protein kinase kinase kinase 10 (Homo sapiens) (UniProt Q02779); test: Selectivity interaction (KinomeScan (DiscoverX)) EUB0000092b MAP3K10; conditions: at 10 µM
[15] = target: T3, Cyclin-dependent kinase 11A (Homo sapiens) (UniProt Q9UQ88); conditions: at 10 µM
T3 sequence (whole entry): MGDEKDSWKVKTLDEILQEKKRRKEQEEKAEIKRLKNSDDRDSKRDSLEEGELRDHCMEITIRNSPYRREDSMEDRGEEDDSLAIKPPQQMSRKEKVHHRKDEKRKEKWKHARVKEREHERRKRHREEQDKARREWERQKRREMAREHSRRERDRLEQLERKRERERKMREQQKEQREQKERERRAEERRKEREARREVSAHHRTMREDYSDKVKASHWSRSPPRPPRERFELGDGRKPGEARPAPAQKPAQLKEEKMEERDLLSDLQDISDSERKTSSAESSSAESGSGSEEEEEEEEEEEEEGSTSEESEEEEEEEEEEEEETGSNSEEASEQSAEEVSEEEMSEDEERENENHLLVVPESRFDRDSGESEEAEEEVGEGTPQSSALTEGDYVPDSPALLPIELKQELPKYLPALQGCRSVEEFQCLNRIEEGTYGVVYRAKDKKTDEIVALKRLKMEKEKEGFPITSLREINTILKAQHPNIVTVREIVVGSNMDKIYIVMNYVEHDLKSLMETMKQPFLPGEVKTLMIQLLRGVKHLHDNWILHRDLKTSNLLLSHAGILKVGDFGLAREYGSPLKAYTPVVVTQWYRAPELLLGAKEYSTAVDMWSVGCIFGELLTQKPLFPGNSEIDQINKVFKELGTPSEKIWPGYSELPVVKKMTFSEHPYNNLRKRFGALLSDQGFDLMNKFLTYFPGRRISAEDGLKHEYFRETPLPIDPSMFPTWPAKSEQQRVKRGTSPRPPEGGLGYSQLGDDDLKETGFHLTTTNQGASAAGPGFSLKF

[16] = target: Receptor tyrosine-protein kinase erbB-3 (Homo sapiens) (UniProt P21860); test: Selectivity interaction (KinomeScan (DiscoverX)) EUB0000618a ERBB3; conditions: at 10 µM
[17] = target: 5'-AMP-activated protein kinase catalytic subunit alpha-1 (Homo sapiens, UniProt Q13131); test: Selectivity interaction (ActivX KiNativ screen (ex vivo kinase selectivity in human PBMCs)) EUB0001619a PRKAA1; type: cell-based; conditions: PBMC, at 1 µM

Chain of Serine/threonine-protein kinase WNK2 (Homo sapiens) (Q9Y3S1 whole entry): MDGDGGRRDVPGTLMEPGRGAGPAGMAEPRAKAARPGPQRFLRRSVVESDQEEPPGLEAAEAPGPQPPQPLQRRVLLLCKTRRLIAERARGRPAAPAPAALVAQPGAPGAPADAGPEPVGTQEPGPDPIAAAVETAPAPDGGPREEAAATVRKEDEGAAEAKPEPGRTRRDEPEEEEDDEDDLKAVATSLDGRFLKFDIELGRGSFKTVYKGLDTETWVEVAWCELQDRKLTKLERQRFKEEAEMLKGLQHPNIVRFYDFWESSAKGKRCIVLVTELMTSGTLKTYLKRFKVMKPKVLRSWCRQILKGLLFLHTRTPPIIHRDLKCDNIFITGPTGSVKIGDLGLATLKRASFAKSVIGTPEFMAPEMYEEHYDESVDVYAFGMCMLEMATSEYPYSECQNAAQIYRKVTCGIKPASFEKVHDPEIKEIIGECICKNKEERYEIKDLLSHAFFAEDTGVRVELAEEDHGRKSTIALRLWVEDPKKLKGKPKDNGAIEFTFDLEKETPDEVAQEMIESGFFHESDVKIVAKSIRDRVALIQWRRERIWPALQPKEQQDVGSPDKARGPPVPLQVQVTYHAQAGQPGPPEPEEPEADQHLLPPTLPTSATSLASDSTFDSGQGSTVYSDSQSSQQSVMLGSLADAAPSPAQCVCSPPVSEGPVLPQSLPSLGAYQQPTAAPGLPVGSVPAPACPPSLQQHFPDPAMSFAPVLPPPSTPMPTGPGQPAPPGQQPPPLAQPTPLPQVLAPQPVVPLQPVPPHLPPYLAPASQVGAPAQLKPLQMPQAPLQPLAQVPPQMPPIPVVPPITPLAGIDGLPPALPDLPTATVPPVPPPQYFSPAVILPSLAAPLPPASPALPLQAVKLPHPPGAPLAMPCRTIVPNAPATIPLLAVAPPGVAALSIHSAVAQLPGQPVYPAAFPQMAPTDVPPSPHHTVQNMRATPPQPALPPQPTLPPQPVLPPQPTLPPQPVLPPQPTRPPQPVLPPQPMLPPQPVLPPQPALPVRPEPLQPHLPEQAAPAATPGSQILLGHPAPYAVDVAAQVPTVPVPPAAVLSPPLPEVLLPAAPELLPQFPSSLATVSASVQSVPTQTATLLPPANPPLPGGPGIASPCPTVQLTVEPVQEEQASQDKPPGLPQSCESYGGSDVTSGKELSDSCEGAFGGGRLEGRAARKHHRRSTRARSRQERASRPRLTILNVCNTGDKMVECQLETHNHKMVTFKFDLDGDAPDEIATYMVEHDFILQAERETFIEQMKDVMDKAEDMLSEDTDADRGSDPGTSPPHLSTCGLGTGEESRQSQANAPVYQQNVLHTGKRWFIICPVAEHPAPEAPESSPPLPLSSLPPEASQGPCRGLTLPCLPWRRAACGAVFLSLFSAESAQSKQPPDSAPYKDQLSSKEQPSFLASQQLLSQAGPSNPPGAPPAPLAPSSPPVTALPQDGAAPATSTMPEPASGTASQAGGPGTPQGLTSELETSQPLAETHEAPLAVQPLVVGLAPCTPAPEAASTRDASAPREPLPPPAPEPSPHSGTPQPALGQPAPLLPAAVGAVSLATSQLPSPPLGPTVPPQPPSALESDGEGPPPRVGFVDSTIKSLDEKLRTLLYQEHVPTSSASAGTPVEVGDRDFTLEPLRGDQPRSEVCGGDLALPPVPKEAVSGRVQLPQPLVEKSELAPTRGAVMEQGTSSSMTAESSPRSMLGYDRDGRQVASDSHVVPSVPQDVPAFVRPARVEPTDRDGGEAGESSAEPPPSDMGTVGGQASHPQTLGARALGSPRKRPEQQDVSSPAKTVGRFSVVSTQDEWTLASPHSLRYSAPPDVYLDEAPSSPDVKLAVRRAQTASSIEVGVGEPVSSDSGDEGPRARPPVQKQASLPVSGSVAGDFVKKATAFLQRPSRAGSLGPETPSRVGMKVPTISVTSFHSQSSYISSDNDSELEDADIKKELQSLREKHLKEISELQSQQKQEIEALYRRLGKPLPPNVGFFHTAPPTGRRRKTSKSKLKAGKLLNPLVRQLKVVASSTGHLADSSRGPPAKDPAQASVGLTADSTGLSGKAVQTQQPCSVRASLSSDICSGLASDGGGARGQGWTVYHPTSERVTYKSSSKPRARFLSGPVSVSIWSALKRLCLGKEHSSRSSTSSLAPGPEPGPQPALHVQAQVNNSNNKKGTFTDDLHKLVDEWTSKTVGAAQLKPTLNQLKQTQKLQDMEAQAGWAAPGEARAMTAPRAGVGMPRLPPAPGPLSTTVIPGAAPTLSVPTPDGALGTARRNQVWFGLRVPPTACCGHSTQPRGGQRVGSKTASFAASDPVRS
Chain of Mitotic checkpoint serine/threonine-protein kinase BUB1 (O43683 whole entry, looked up): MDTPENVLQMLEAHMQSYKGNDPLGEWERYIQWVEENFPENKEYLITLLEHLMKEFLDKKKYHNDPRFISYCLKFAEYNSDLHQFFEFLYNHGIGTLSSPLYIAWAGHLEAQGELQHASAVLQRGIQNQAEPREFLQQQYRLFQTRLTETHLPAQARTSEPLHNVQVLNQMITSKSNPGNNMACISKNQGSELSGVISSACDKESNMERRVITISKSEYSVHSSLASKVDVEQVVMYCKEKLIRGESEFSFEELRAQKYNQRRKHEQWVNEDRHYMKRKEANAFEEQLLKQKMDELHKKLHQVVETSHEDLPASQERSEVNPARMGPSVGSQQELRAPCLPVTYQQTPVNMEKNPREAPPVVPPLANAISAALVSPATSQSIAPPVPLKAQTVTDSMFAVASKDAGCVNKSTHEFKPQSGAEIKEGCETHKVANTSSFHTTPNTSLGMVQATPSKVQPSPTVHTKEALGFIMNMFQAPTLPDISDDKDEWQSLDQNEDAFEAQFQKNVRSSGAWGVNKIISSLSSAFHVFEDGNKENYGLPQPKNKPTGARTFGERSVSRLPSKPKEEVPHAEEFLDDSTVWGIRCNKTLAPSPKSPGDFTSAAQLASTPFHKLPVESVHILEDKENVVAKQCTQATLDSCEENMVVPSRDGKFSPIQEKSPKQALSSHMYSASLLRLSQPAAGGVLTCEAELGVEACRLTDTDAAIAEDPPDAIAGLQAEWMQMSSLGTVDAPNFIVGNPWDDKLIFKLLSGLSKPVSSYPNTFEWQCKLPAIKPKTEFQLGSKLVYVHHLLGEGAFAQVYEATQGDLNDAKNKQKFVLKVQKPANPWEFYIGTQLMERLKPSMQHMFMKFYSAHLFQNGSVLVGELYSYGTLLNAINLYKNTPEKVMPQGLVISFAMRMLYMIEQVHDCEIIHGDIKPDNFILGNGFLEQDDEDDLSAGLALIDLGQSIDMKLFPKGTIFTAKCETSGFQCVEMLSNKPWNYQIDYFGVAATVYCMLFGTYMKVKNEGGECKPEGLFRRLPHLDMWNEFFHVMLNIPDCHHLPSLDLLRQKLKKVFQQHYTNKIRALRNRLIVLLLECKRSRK
Chain of Protein kinase C delta type (Homo sapiens) (Q05655 whole entry, looked up): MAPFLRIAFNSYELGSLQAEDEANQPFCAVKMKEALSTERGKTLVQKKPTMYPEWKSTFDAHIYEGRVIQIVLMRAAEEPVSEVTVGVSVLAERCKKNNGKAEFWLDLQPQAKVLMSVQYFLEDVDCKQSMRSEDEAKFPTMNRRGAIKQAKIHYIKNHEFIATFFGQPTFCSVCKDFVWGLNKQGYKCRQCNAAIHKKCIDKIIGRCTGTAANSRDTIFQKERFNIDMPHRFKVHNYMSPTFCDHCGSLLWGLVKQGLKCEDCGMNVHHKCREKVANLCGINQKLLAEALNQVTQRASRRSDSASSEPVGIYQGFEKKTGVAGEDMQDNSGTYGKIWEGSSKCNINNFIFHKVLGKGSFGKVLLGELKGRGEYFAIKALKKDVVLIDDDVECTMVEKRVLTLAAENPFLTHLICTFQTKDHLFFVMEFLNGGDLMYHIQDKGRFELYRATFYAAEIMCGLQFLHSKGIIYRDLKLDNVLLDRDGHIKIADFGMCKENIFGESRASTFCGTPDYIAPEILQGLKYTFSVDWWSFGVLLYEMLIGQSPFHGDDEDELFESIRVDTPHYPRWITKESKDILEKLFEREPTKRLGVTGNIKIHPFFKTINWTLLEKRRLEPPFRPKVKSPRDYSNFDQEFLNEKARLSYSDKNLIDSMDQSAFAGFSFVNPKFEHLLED
Chain of Proto-oncogene tyrosine-protein kinase Src (P12931 2-536 limits assumed): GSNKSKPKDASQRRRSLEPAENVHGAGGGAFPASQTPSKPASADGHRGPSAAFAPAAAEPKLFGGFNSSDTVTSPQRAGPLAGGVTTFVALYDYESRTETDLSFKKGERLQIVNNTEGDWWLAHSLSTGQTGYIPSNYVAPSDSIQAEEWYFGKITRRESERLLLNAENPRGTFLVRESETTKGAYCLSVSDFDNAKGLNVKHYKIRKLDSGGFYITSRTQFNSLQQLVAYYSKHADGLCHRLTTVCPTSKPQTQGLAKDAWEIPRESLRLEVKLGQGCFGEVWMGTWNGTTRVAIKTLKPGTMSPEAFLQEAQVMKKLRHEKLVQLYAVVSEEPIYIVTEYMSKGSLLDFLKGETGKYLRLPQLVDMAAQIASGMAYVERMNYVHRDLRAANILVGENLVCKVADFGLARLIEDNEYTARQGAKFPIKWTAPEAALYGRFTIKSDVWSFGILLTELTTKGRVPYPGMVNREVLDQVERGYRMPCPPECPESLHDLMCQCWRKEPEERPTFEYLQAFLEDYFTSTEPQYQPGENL
Chain of Tyrosine-protein kinase FRK (Homo sapiens) (P42685 whole entry): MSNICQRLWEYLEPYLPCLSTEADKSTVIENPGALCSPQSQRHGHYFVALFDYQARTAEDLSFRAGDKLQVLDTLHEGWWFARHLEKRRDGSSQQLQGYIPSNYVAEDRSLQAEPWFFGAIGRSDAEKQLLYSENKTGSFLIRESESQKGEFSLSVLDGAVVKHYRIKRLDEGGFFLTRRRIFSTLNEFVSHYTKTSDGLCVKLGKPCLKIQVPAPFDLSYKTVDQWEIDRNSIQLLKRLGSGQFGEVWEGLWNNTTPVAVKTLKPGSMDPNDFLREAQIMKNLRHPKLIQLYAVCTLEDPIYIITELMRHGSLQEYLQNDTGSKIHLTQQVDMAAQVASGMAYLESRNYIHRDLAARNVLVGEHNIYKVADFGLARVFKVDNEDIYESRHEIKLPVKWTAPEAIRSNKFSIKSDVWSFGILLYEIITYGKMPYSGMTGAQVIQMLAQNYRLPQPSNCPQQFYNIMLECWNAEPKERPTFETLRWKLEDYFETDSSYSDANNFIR

% of control [1]: 85%
SMILES: CC(=O)c1cc(-c2ccccc2OCC2CC2)c2ncccn12

SMILES: O=C(NOC[C@H](O)CO)c1ccc(F)c(F)c1Nc1ccc(I)cc1F
% of control [2]: 100%
% of control [3]: 97%

SMILES: CNC(=O)Nc1ccc(-c2nc(N3CC4CCC(C3)O4)c3cnn(C4CCC5(CC4)OCCO5)c3n2)cc1
% of control [4]: 11%

% of inhibition [5]: 1%
SMILES: Cc1ccc(-c2ccc3c(ccc4sc5c(c43)NC[C@@H](C)NC5=O)n2)cn1

% of inhibition [6]: -5.07%
SMILES: CC[C@@H]1[C@H](F)C(=O)N[C@@H]1COc1nccc2cc(C(N)=O)c(OC)cc12 [ZIMLOVISERTIB]

SMILES: COc1cc(Nc2nc(C)cc(-c3cnn4nc(OC)ccc34)n2)cc(C(F)(F)F)c1
% of control [7]: 97%
% of control [8]: 100%

SMILES: CN(C)C/C=C/C(=O)Nc1ccc(C(=O)N2CCCC(Nc3ncc(Cl)c(-c4c[nH]c5ccccc45)n3)C2)cc1 (configuration not stated)
% of control [9]: 94%
% of control [10]: 81%

SMILES: CN(C)CCOc1ccc(-c2nc(-c3ccncc3)c(-c3ccc4c(c3)CC/C4=N\O)[nH]2)cc1
% of control [11]: 96%

IC50 [12]: > 10 µM
SMILES: CCc1cccc(CC)c1NC(=O)c1nn(C)c2c1CCc1cnc(Nc3ccc(C(=O)NC4CCN(C)CC4)cc3OC(F)(F)F)nc1-2

SMILES: Nc1cnc(N2CCc3cc(S(=O)(=O)Nc4c(F)cc(Cl)cc4F)cc(N4CCCC4=O)c32)nc1 [TP-020n]
% of control [13]: 99%

SMILES: CCC(=O)N1CCN(c2ccc(-n3c(=O)ccc4cnc5ccc(-c6cnc7ccccc7c6)cc5c43)cc2C(F)(F)F)CC1
% of control [14]: 99%

SMILES: Cc1cc([C@@H](C)Nc2ccccc2C(=O)O)c2nc(N3CCOCC3)cc(=O)n2c1 [AZD-6482]
% of control [15]: 91%

SMILES: O[C@H]1CC[C@H](Nc2ncc3nc(Nc4c(F)cc(F)cc4F)n([C@H]4CCOC4)c3n2)CC1
% of control [16]: 4.6%

SMILES: N#Cc1cccc(-c2c[nH]c3ncnc(N4CCOCC4)c23)c1
% of inhibition [17]: 27%
